In patent US20240344028A1, “Serum-free media for producing adipocytes for animal consumption” (Mosa Meat B.V., priority 2021, published 2024):

Key:
MSC cells = assay: PPARγ agonist testing in 2D adipogenic differentiation; type: cell-based, bovine; conditions: 12 days, indomethacin 50 μM, others 10 μM
Protocol: (§1) At 90% confluence, proliferated MSCs were trypsinized and seeded in a 96-well collagen coated cell culture plate at 30,000 cells/cm^2 in SF-PM. After 24 hours, adipogenesis was induced by changing SF-PM to DMAD (the serum-free differentiation medium as depicted in Example 1), which was maintained on the cells for a period of 12 days with media changes every 3-4 days. As a control differentiation medium (ctrl), DMEM/F12 with 3% FBS was supplemented with 4 conventional adipogenic inducers (IBMX (Sigma Aldrich-15879; 0.5 mM), dexamethasone (Sigma Aldrich-D4902; 10 μM), rosiglitazone (Sigma Aldrich-R2408; 5 μM) and insulin (Peprotech-10-365; 10 μM)). All 4 inducers were used for the first 3 days of culture and only insulin and rosiglitazone were used for the remaining 9 days.
(§2) Cells were fixed on days 6 and 12 with 4% PFA for 20 minutes at room temperature and washed twice with PBS. Cells were then stained with Hoechst (ThermoFisher 493/503, 1:2000) and BODIPY (Sigma Aldrich 345880, 1:1000) in PBS for 30 minutes. Adipogenic differentiation was quantified using the ImageXPress Pico High Content Analyser (HCA; Molecular devices). The parameters measured were total area of lipid, lipid droplet average area and percentage of positive cells. For the percentage of positive cells, the HCA software assigned BODIPY immunoreactivity to the nearest nuclei, (i.e. a positive cell) and the number of BODIPY positive nuclei was then divided by the total number of nuclei.
MSC cells were cultured as described in Example 2. With the exception that indomethacin (50 μM; 17378 from Sigma Aldrich) was replaced with one of the following three PPARΥ agonists to test their efficiency: magnolol (M3445 from Sigma Aldrich) at 10 μM; honokiol (H4914 from Sigma Aldrich) at 10 μM and amorfrutin B (SMB00532 from Sigma Aldrich) at 10 μM.

[1] = system: Adipogenic progenitor cells; assay: 2D adipogenic differentiation with DMAD components removed or at changed concentration; type: cell-based, bovine; conditions: for effect of removing the component from DMAD on percentage of positive cells and total lipid area: single component removed from DMAD
Protocol: as §1, §2
Adipogenic progenitor cells were cultured as described in Example 2, with the exception that single components (FGF, EGF, insulin, vitamin C, hydrocortisone, BMP4, lipid concentrate, HEPES, putrescine, progesterone) of the DMAD medium (the serum-free differentiation medium as depicted in Example 1) were removed. In addition, different concentrations (50% and 200%) were tested for EGF, FGF, vitamin C, hydrocortisone and progesterone.

| Molecule | adipogenic differentiation in DMAD with this PPARγ agonist (MSC cells) | effect of removing the component from DMAD on percentage of positive cells and total lipid area [1] | also measured |
| --- | --- | --- | --- |
| COc1cc(CCc2ccccc2)c(C(=O)O)c(O)c1C/C=C(\C)CCC=C(C)C [amorfrutin B] | able to undergo adipogenic differentiation | – | – |
| CC(=O)[C@H]1CC[C@H]2[C@@H]3CCC4=CC(=O)CC[C@]4(C)[C@H]3CC[C@]12C [progesterone] | – | did not have significant effects | – |
| C=CCc1ccc(O)c(-c2ccc(O)c(CC=C)c2)c1 [honokiol] | able to undergo adipogenic differentiation | – | – |
| insulin: recombinant human insulin, 10-365 from Peprotech | – | significantly decreased differentiation | – |
| NCCCCN [putrescine, butane-1,4-diamine] | – | did not have significant effects | – |
| C[C@]12CCC(=O)C=C1CC[C@@H]1[C@@H]2[C@@H](O)C[C@@]2(C)[C@H]1CC[C@]2(O)C(=O)CO [hydrocortisone] | – | significantly decreased differentiation | – |
| C=CCc1ccc(O)c(-c2cc(CC=C)ccc2O)c1 [magnolol] | able to undergo adipogenic differentiation | – | level of differentiation, ranking among the PPARγ agonists (MSC cells): highest level of differentiation |
| FGF: recombinant human FGF2, 100-18B from Peprotech | – | did not have significant effects | – |
| O=S(=O)(O)CCN1CCN(CCO)CC1 [HEPES, 4-(2-hydroxyethyl)-1-piperazineethanesulfonic acid] | – | did not have significant effects | – |
| EGF: recombinant human EGF, AF-100-15 from Peprotech (NSDSECPLSHDGYCLHDGVCMYIEALDKYACNCVVGYIGERCQYRDLKWWELR; Epidermal growth factor; UniProt P01133 971-1023, looked up) | – | significantly decreased differentiation | effect on adipogenesis (total lipid area) of decreasing the component's concentration in DMAD ([1]; 50% of the standard concentration vs 100% control): significantly decreased adipogenesis |
| COc1ccc2c(c1)c(CC(=O)O)c(C)n2C(=O)c1ccc(Cl)cc1 [indomethacin] | able to undergo adipogenic differentiation | – | level of differentiation, ranking among the PPARγ agonists (MSC cells): highest level of differentiation |
